# Measured values reported in PubChem BioAssay AID244 (DTP/NCI, 2004).
# Several values for one entry are separate records, joined by “and”; a condition that tells them apart may be missing. Identical values can stand only once. Results filed as inconclusive are left out.
# Test system: CD2F1 mice, Lymphoma 8 ip, survival T/C
# Test: NCI In Vivo Anticancer Drug Screen. Data for tumor model Lymphoma 8 (intraperitoneal) in CD2F1 (CDF1) mice
# Conditions: higher = longer survival
# Description: The antitumor activity of compounds was measured in mice bearing transplantable tumors. Survival or tumor size were measured and the results are expressed as the measurement made in the treated group (T) divided by the measurement made in the vehicle treated control group (C). The tumor model used in this assay is Lymphoma 8 (intraperitoneal) in CD2F1 (CDF1) mice
# [1] = endpoint: median survival time, dose: 50.0 mg/kg/injection, schedule: Q01DX005 (ip), vehicle: saline
# [2] = endpoint: median survival time, dose: 100.0 mg/kg/injection, schedule: Q01DX005 (ip), vehicle: saline
# [3] = endpoint: median survival time, dose: 100.0 mg/kg/injection, schedule: Q01DX005 (ip), vehicle: water
# [4] = endpoint: median survival time, dose: 200.0 mg/kg/injection, schedule: Q01DX005 (ip), vehicle: water
# [5] = endpoint: median survival time, dose: 400.0 mg/kg/injection, schedule: Q01DX005 (ip), vehicle: water
# [6] = endpoint: median survival time, dose: 50.0 mg/kg/injection, schedule: Q01DX009 (ip), vehicle: saline
# [7] = endpoint: median survival time, dose: 800.0 mg/kg/injection, schedule: Q01DX005 (ip), vehicle: water
compound,measurement,setting,value
CC/C(=C(/CC)c1ccc(O)cc1)c1ccc(O)cc1,T/C,"endpoint: survival time, mean or median, dose: 12.5 mg/kg/injection, schedule: Q01DX010 (sc), vehicle: steriod suspending solution",90 % of control
same,T/C,"endpoint: survival time, mean or median, dose: 25.0 mg/kg/injection, schedule: Q01DX010 (sc), vehicle: steriod suspending solution",90 % of control
same,T/C,"endpoint: survival time, mean or median, dose: 50.0 mg/kg/injection, schedule: Q01DX010 (sc), vehicle: steriod suspending solution",90 % of control and 95 % of control
same,T/C,"endpoint: survival time, mean or median, dose: 100.0 mg/kg/injection, schedule: Q01DX010 (sc), vehicle: steriod suspending solution",90 % of control
CC(=O)Nc1c(Cl)cc2c(c1Cl)Cc1cc([N+](=O)[O-])ccc1-2,T/C,"endpoint: survival time, mean or median, dose: 3.9 mg/kg/injection, schedule: Q01DX010 (ip), vehicle: saline",87 % of control
COc1cccc2c1C(=O)c1c(O)c3c(c(O)c1C2=O)C[C@@](O)(C(C)=O)C[C@@H]3OC1CC(N)C(O)C(C)O1 (some centres not stated),T/C,"endpoint: median survival time, dose: 1.25 mg/kg/injection, schedule: Q01DX005 (ip), vehicle: saline",96 % of control and 101 % of control
same,T/C,"endpoint: median survival time, dose: 2.5 mg/kg/injection, schedule: Q01DX005 (ip), vehicle: saline",100 % of control and 105 % of control
same,T/C,"endpoint: median survival time, dose: 5.0 mg/kg/injection, schedule: Q01DX005 (ip), vehicle: saline",123 % of control
same,T/C,"endpoint: median survival time, dose: 10.0 mg/kg/injection, schedule: Q01DX005 (ip), vehicle: saline",82 % of control
CN1C(=O)C=CC1=O,T/C,"endpoint: median survival time, dose: 0.5 mg/kg/injection, schedule: Q01DX009 (ip), vehicle: saline",97 % of control and 102 % of control
same,T/C,"endpoint: median survival time, dose: 1.0 mg/kg/injection, schedule: Q01DX009 (ip), vehicle: saline",102 % of control and 103 % of control
same,T/C,"endpoint: median survival time, dose: 2.0 mg/kg/injection, schedule: Q01DX009 (ip), vehicle: saline",94 % of control and 100 % of control
same,T/C,"endpoint: median survival time, dose: 4.0 mg/kg/injection, schedule: Q01DX009 (ip), vehicle: saline",94 % of control
CN(C)C(=O)/N=N/C(=O)N(C)C,T/C,"endpoint: median survival time, dose: 12.5 mg/kg/injection, schedule: Q01DX005 (ip), vehicle: saline",95 % of control and 96 % of control and 98 % of control
same,T/C,"endpoint: median survival time, dose: 25.0 mg/kg/injection, schedule: Q01DX005 (ip), vehicle: saline",90 % of control and 92 % of control and 96 % of control
same,T/C,[1],90 % of control and 91 % of control and 104 % of control
same,T/C,[2],88 % of control and 90 % of control (2×)
NCC(=O)O,T/C,"endpoint: median survival time, dose: 187.5 mg/kg/injection, schedule: Q04HX003 (ip), vehicle: saline",86 % of control
same,T/C,"endpoint: median survival time, dose: 375.0 mg/kg/injection, schedule: Q04HX003 (ip), vehicle: saline",86 % of control
same,T/C,"endpoint: median survival time, dose: 750.0 mg/kg/injection, schedule: Q04HX003 (ip), vehicle: saline",81 % of control
same,T/C,"endpoint: median survival time, dose: 1500.0 mg/kg/injection, schedule: Q04HX003 (ip), vehicle: saline",75 % of control
NC(CC(=O)NO)C(=O)O (configuration not stated),T/C,[3],100 % of control
same,T/C,[4],108 % of control
same,T/C,[5],108 % of control
NC(C/[N+]([O-])=N/O)C(=O)O (configuration not stated),T/C,"endpoint: median survival time, dose: 12.5 mg/kg/injection, schedule: Q01DX009 (ip), vehicle: other",119 % of control
same,T/C,"endpoint: median survival time, dose: 12.5 mg/kg/injection, schedule: Q01DX009 (ip), vehicle: saline + alcohol",113 % of control
same,T/C,"endpoint: median survival time, dose: 12.5 mg/kg/injection, schedule: Q01DX009 (ip), vehicle: water",116 % of control
same,T/C,"endpoint: median survival time, dose: 13.2 mg/kg/injection, schedule: Q01DX010 (ip), vehicle: alkali diluted with saline",174 % of control
same,T/C,"endpoint: median survival time, dose: 19.8 mg/kg/injection, schedule: Q01DX010 (ip), vehicle: alkali diluted with saline",197 % of control
same,T/C,"endpoint: median survival time, dose: 25.0 mg/kg/injection, schedule: Q01DX009 (ip), vehicle: other",120 % of control
same,T/C,"endpoint: median survival time, dose: 25.0 mg/kg/injection, schedule: Q01DX009 (ip), vehicle: saline + alcohol",116 % of control
same,T/C,"endpoint: median survival time, dose: 25.0 mg/kg/injection, schedule: Q01DX009 (ip), vehicle: water",122 % of control
same,T/C,"endpoint: median survival time, dose: 29.6 mg/kg/injection, schedule: Q01DX010 (ip), vehicle: alkali diluted with saline",211 % of control
same,T/C,"endpoint: median survival time, dose: 44.4 mg/kg/injection, schedule: Q01DX010 (ip), vehicle: alkali diluted with saline",180 % of control
same,T/C,"endpoint: median survival time, dose: 50.0 mg/kg/injection, schedule: Q01DX009 (ip), vehicle: other",98 % of control
same,T/C,"endpoint: median survival time, dose: 50.0 mg/kg/injection, schedule: Q01DX009 (ip), vehicle: water",150 % of control
same,T/C,"endpoint: median survival time, dose: 66.7 mg/kg/injection, schedule: Q01DX010 (ip), vehicle: alkali diluted with saline",121 % of control
same,T/C,"endpoint: median survival time, dose: 100.0 mg/kg/injection, schedule: Q01DX009 (ip), vehicle: other",92 % of control
same,T/C,"endpoint: median survival time, dose: 100.0 mg/kg/injection, schedule: Q01DX009 (ip), vehicle: saline + alcohol",103 % of control
same,T/C,"endpoint: median survival time, dose: 100.0 mg/kg/injection, schedule: Q01DX009 (ip), vehicle: water",91 % of control
same,T/C,"endpoint: median survival time, dose: 100.0 mg/kg/injection, schedule: Q01DX010 (ip), vehicle: alkali diluted with saline",109 % of control
O=C1C=C(C2OC(CO)C(O)C2O)C(=O)N1 (configuration not stated),T/C,"endpoint: median survival time, dose: 2.0 mg/kg/injection, schedule: Q01DX010 (ip), vehicle: saline",92 % of control
same,T/C,"endpoint: median survival time, dose: 4.0 mg/kg/injection, schedule: Q01DX010 (ip), vehicle: saline",92 % of control
same,T/C,"endpoint: median survival time, dose: 8.0 mg/kg/injection, schedule: Q01DX005 (ip), vehicle: saline",75 % of control
same,T/C,"endpoint: median survival time, dose: 8.0 mg/kg/injection, schedule: Q01DX010 (ip), vehicle: saline",100 % of control
same,T/C,"endpoint: median survival time, dose: 16.0 mg/kg/injection, schedule: Q01DX005 (ip), vehicle: saline",43 % of control
same,T/C,"endpoint: median survival time, dose: 32.0 mg/kg/injection, schedule: Q01DX005 (ip), vehicle: saline",17 % of control
S=c1nc[nH]c2nc[nH]c12,T/C,"endpoint: median survival time, dose: 60.0 mg/kg/injection, schedule: Q01DX002 (ip), vehicle: saline",96 % of control
same,T/C,"endpoint: median survival time, dose: 60.0 mg/kg/injection, schedule: Q04DX002 (ip), vehicle: saline",107 % of control
same,T/C,"endpoint: median survival time, dose: 90.0 mg/kg/injection, schedule: Q01DX002 (ip), vehicle: saline",93 % of control
same,T/C,"endpoint: median survival time, dose: 90.0 mg/kg/injection, schedule: Q04DX002 (ip), vehicle: saline",107 % of control
same,T/C,"endpoint: median survival time, dose: 135.0 mg/kg/injection, schedule: Q01DX002 (ip), vehicle: saline",103 % of control
NC(C(=O)O)C(F)(F)C(=O)O (configuration not stated),T/C,"endpoint: median survival time, dose: 3.12 mg/kg/injection, schedule: Q01DX009 (ip), vehicle: saline",93 % of control
same,T/C,"endpoint: median survival time, dose: 6.25 mg/kg/injection, schedule: Q01DX009 (ip), vehicle: saline",97 % of control
same,T/C,"endpoint: median survival time, dose: 12.5 mg/kg/injection, schedule: Q01DX009 (ip), vehicle: saline",87 % of control and 89 % of control
same,T/C,"endpoint: median survival time, dose: 25.0 mg/kg/injection, schedule: Q01DX009 (ip), vehicle: saline",100 % of control
same,T/C,[6],107 % of control
O=CC(S)CO (configuration not stated),T/C,"endpoint: median survival time, dose: 25.0 mg/kg/injection, schedule: Q01DX010 (ip), vehicle: saline",92 % of control
same,T/C,"endpoint: median survival time, dose: 50.0 mg/kg/injection, schedule: Q01DX010 (ip), vehicle: saline",92 % of control
same,T/C,"endpoint: median survival time, dose: 100.0 mg/kg/injection, schedule: Q01DX010 (ip), vehicle: saline",100 % of control
NC(=O)C(F)(F)C(N)C(=O)O (configuration not stated),T/C,[6],88 % of control
same,T/C,"endpoint: median survival time, dose: 100.0 mg/kg/injection, schedule: Q01DX009 (ip), vehicle: saline",88 % of control
NC(CC(=O)O)C(=O)O (configuration not stated),T/C,[3],95 % of control and 100 % of control
same,T/C,[4],100 % of control
same,T/C,[5],100 % of control
same,T/C,[7],91 % of control
NC(=O)CC(N)C(=O)O (configuration not stated),T/C,[3],91 % of control
same,T/C,[4],100 % of control
same,T/C,[5],100 % of control
same,T/C,[7],91 % of control
N=[N+]=CC(=O)OCC(N)C(=O)O (configuration not stated),T/C,"endpoint: median survival time, dose: 2.0 mg/kg/injection, schedule: Q14DX016 (ip), vehicle: saline",150 % of control
NCCC(N)=O,T/C,[1],92 % of control and 94 % of control
same,T/C,[2],92 % of control and 94 % of control
same,T/C,"endpoint: median survival time, dose: 200.0 mg/kg/injection, schedule: Q01DX005 (ip), vehicle: saline",92 % of control and 94 % of control
same,T/C,"endpoint: median survival time, dose: 400.0 mg/kg/injection, schedule: Q01DX005 (ip), vehicle: saline",92 % of control and 94 % of control
C[C@H]1C(=O)O[C@@H]2CCN3CC=C(COC(=O)[C@](C)(O)[C@@]1(C)O)[C@H]23,T/C,"endpoint: survival time, mean or median, dose: 3.13 mg/kg/injection, schedule: Q01DX010 (ip), vehicle: saline",100 % of control
same,T/C,"endpoint: survival time, mean or median, dose: 6.25 mg/kg/injection, schedule: Q01DX010 (ip), vehicle: saline",100 % of control
same,T/C,"endpoint: survival time, mean or median, dose: 12.5 mg/kg/injection, schedule: Q01DX010 (ip), vehicle: saline",100 % of control
same,T/C,"endpoint: survival time, mean or median, dose: 25.0 mg/kg/injection, schedule: Q01DX010 (ip), vehicle: saline",100 % of control
N[C@H](C(=O)O)[C@@H]1CC(Cl)=NO1,T/C,"endpoint: median survival time, dose: 0.38 mg/kg/injection, schedule: Q01DX009 (ip), vehicle: saline",105 % of control
same,T/C,"endpoint: median survival time, dose: 0.75 mg/kg/injection, schedule: Q01DX009 (ip), vehicle: saline",115 % of control
same,T/C,"endpoint: median survival time, dose: 1.5 mg/kg/injection, schedule: Q01DX009 (ip), vehicle: saline",118 % of control
